# System: transgenic Arabidopsis thaliana T1 plants (ALT-1-01, ALT-2-01, ALT-3-01; cytoplasmic or chloroplastic)
# Assay: Herbicide tolerance of transgenic Arabidopsis thaliana T1 plants expressing thifensulfuron hydrolase, resistance classes counted after spraying
# Type: in vivo
# Settings: for Highly resistant (number of plants with growth status consistent with blank solvent group) / Moderately resistant (number of plants with bolting height less than 1/2 of blank solvent group) / Non-resistant (number of plants dead) / Poorly resistant (number of plants still not capable of bolting): 1-fold field concentration (g ai/ha: Sulfometuron-methyl 30, iodosulfuron-methyl 10, mesosulfuron 14, oxasulfuron 60), 14 days after spraying
# Source text: T1 transformants were initially selected from the background of untransformed seeds using a glufosinate selection scheme. About 40000 T1 seeds were screened, and 380 T1 positive transformants (PAT gene) were identified with a transformation efficiency of about 0.95%. The plants that were transformed with the recombinant expression vector DBN100632 were Arabidopsis thaliana plants having an ALT-1-01 nucleotide sequence located in the cytoplasm introduced (At cytoplasmic ALT-1-01), and the plants that were transformed with the recombinant expression vector DBN100631 were Arabidopsis thaliana plants having an ALT-1-01 nucleotide sequence located in the chloroplast introduced (At chloroplastic ALT-1-01); the plants that were transformed with the recombinant expression vector DBN100634 were Arabidopsis thaliana plants having an ALT-2-01 nucleotide sequence located in the cytoplasm introduced (At cytoplasmic ALT-2-01), and the plants that were transformed with the recombinant expression vector DBN100633 were Arabidopsis thaliana plants having an ALT-2-01 nucleotide sequence located in the chloroplast introduced (At chloroplastic ALT-2-01); and the plants that were transformed with the recombinant expression vector DBN100636 were Arabidopsis thaliana plants having an ALT-3-01 nucleotide sequence located in the cytoplasm introduced (At cytoplasmic ALT-3-01), and the plants that were transformed with the recombinant expression vector DBN100635 were Arabidopsis thaliana plants having an ALT-3-01 nucleotide sequence located in the chloroplast introduced (At chloroplastic ALT-3-01). The herbicide tolerance effects of At cytoplasmic ALT-1-01 T1 plants, At chloroplastic ALT-1-01 T1 plants, At cytoplasmic ALT-2-01 T1 plants, At chloroplastic ALT-2-01 T1 plants, At cytoplasmic ALT-3-01 T1 plants, At chloroplastic ALT-3-01 T1 plants and wild-type Arabidopsis thaliana plants on Sulfometuron-methyl were detected (14 days after sowing), respectively.
# At cytoplasmic ALT-1-01 T1 plants, At chloroplastic ALT-1-01 T1 plants, At cytoplasmic ALT-2-01 T1 plants, At chloroplastic ALT-2-01 T1 plants, At cytoplasmic ALT-3-01 T1 plants, At chloroplastic ALT-3-01 T1 plants and wild-type Arabidopsis thaliana plants were sprayed with Sulfometuron-methyl (30 g ai/ha, 1-fold field concentration) and a blank solvent (water), respectively. Plants were counted for the resistance situations 14 days after spraying: those having a consistent growth status with the blank solvent (water) group after 14 days were classified as highly resistant plants, those having a bolting height less than ½ of that of the blank solvent (water) group after 14 days were classified as moderately resistant plants, those still not capable of bolting after 14 days were classified as poorly resistant plants, and those dead after 14 days were classified as non-resistant plants. Since each Arabidopsis thaliana T1 plant was an independent transformation event, a significant difference in individual T1 responses could be expected at a given dose.
# At cytoplasmic ALT-1-01 T1 plants, At chloroplastic ALT-1-01 T1 plants, At cytoplasmic ALT-2-01 T1 plants, At chloroplastic ALT-2-01 T1 plants, At cytoplasmic ALT-3-01 T1 plants, At chloroplastic ALT-3-01 T1 plants and wild-type Arabidopsis thaliana plants in Example 4 were sprayed with iodosulfuron-methyl (10 g ai/ha, 1-fold field concentration), mesosulfuron (14 g ai/ha, 1-fold field concentration) and oxasulfuron (60 g ai/ha, 1-fold field concentration), respectively, in addition to Sulfometuron-methyl (30 g ai/ha, 1-fold field concentration) and the blank solvent (water). […]
# [1] = At chloroplastic ALT-1-01 T1 plants
# [2] = At chloroplastic ALT-2-01 T1 plants
# [3] = At chloroplastic ALT-3-01 T1 plants
# [4] = At cytoplasmic ALT-1-01 T1 plants
# [5] = At cytoplasmic ALT-2-01 T1 plants
# [6] = At cytoplasmic ALT-3-01 T1 plants
smiles,measurement,setting,value
"COC(=O)c1ccccc1S(=O)(=O)NC(=O)Nc1nc(C)cc(C)n1 [Sulfometuron-methyl, 2-(4,6-dimethylpyrimidine-2-amino-formamido-sulfonyl) methyl benzoate]",Highly resistant (number of plants with growth status consistent with blank solvent group),[1],27
same,Moderately resistant (number of plants with bolting height less than 1/2 of blank solvent group),[1],0
same,Non-resistant (number of plants dead),[1],1
same,Poorly resistant (number of plants still not capable of bolting),[1],0
same,Highly resistant (number of plants with growth status consistent with blank solvent group),[2],29
same,Moderately resistant (number of plants with bolting height less than 1/2 of blank solvent group),[2],0
same,Non-resistant (number of plants dead),[2],0
same,Poorly resistant (number of plants still not capable of bolting),[2],1
same,Highly resistant (number of plants with growth status consistent with blank solvent group),[3],27
same,Moderately resistant (number of plants with bolting height less than 1/2 of blank solvent group),[3],0
same,Non-resistant (number of plants dead),[3],1
same,Poorly resistant (number of plants still not capable of bolting),[3],0
same,Highly resistant (number of plants with growth status consistent with blank solvent group),[4],23
same,Moderately resistant (number of plants with bolting height less than 1/2 of blank solvent group),[4],2
same,Non-resistant (number of plants dead),[4],1
same,Poorly resistant (number of plants still not capable of bolting),[4],1
same,Highly resistant (number of plants with growth status consistent with blank solvent group),[5],24
same,Moderately resistant (number of plants with bolting height less than 1/2 of blank solvent group),[5],0
same,Non-resistant (number of plants dead),[5],3
same,Poorly resistant (number of plants still not capable of bolting),[5],2
same,Highly resistant (number of plants with growth status consistent with blank solvent group),[6],22
same,Moderately resistant (number of plants with bolting height less than 1/2 of blank solvent group),[6],1
same,Non-resistant (number of plants dead),[6],3
same,Poorly resistant (number of plants still not capable of bolting),[6],1
same,"herbicide tolerance conferred by the thifensulfuron hydrolase (ALT-1, ALT-2 and ALT-3)","transgenic Arabidopsis thaliana T1 plants, 30 g ai/ha",conferred Sulfometuron-methyl herbicide tolerance to individual Arabidopsis thaliana plants

# — US20190055576A1, “USE OF HERBICIDE-TOLERANT PROTEIN” (BEIJING DABEINONG TECHNOLOGY GROUP CO., LTD., priority 2016, published 2019)
